The results in this text go back to US20050197350A1, “Novel quinoline, tetrahydroquinazoline, and pyrimidine derivatives and methods of treatment related to the use thereof” (TAISHO PHARMACEUTICAL CO., LTD., priority 2003, published 2005).

Where two headings read alike, the source gives them in different places.

The subject of the assay is MCH receptors. In words: MCH receptor activity class (method not given).
The mark [1] stands for this setting: activity class 1-3: percent of control at 10^-7 M or IC50.
Where [2] appears, read: MCH receptor activity class 1-3 (percent of control at 10^-7 M or IC50).
The mark [3] stands for this setting: class by percent of control at 10^-7 M or IC50.
[4] abbreviates: MCH receptor, class by percent of control at 10^-7 M or IC50.
Where [5] appears, read: class by percent of control at 10^−7 M or IC50.

As for `CN(C)c1cc(N[C@H]2CC[C@@H](NC(=O)OCC3c4ccccc4-c4ccccc43)CC2)nc2ccccc12` [compound 1557], the class under setting [1] is listed as 3 (Class 3 The value of percent of control at 10^−7 M was more than 60% or the value of IC50 was more than 200 nM.).

As for `CCc1cccc(C)c1NC(=S)N[C@H]1CC[C@@H](Nc2nccc(N(C)C)n2)CC1` [compound 2325], under setting [2], the class is listed as 3 (Class 3 The value of percent of control at 10^−7 M was more than 60% or the value of IC50 was more than 200 nM.).

On to `CN(C)c1nc(N[C@H]2CC[C@@H](CNCc3cccc(C#N)c3)CC2)nc2c1CCCC2` [compound 1405], for which, under setting [3], the class is on record as 3 (Class 3 The value of percent of control at 10^−7 M was more than 60% or the value of IC50 was more than 200 nM.).

For `CN(C)c1cc(N[C@H]2CC[C@@H](CNC(=O)c3cc(F)c(Cl)cc3Cl)CC2)nc2ccccc12` [compound 166], the class under setting [4] is on record as 3 (Class 3 The value of percent of control at 10^−7 M was more than 60% or the value of IC50 was more than 200 nM.).

Regarding `CN(C)c1ccnc(N[C@H]2CC[C@@H](NC(=O)C(c3ccc(Cl)cc3)c3ccc(Cl)cc3)CC2)n1` [compound 825], the class under setting [3] is listed as 3 (Class 3 The value of percent of control at 10^−7 M was more than 60% or the value of IC50 was more than 200 nM.).

As for `Cc1cc(N(C)C)nc(N[C@H]2CC[C@@H](CNC(=O)c3ccc(Br)c(C)c3)CC2)n1` [compound 2763], the class under setting [5] is on record as 1 (Class 1: The value of percent of control at 10^−7 M was less than 40% or the value of IC50 was less than 50 nM.).

With `CN(C)c1cc(N[C@H]2CC[C@@H](NC(=O)c3cc(Cl)cc(Cl)c3NC(=O)C#Cc3ccccc3)CC2)nc2ccccc12` [compound 719], the class under setting [3] is listed as 3 (Class 3 The value of percent of control at 10^−7 M was more than 60% or the value of IC50 was more than 200 nM.).

For `Cc1cc(N(C)C)nc(NC[C@H]2CC[C@@H](NC(=O)c3ccc(C)c(F)c3)CC2)n1` [compound 2737], under setting [5], the class is 3 (Class 3 The value of percent of control at 10^−7 M was more than 60% or the value of IC50 was more than 200 nM.).

`CN(C)c1ccnc(N[C@H]2CC[C@@H](NC(=O)C(c3ccccc3)c3ccccc3)CC2)n1` [compound 250, N-(cis-4-{[4-(dimethylamino)pyrimidin-2-yl]amino}cyclohexyl)-2,2-diphenylacetamide]: under setting [3], the class is reported as 2 (Class 2: The value of percent of control at 10^−7 M was from 40% to 60% or the value of IC′50 was from 50 nM to 200 nM.).

As to `CN(C)c1ccnc(N[C@H]2CC[C@@H](CNC(=O)CC3CCCC3)CC2)n1` [compound 420], the class (class 1-3 by percent of control at 10^-7 M or IC50) is 3 (Class 3 The value of percent of control at 10^−7 M was more than 60% or the value of IC50 was more than 200 nM.).

Regarding `COc1cccc(N(C)CC(=O)N[C@H]2CC[C@@H](Nc3ncc(C)c(N(C)C)n3)CC2)c1` [compound 2947], under setting [5], the class was 1 (Class 1: The value of percent of control at 10^−7 M was less than 40% or the value of IC50 was less than 50 nM.).

Turning to `CN(C)c1ccnc(N[C@H]2CC[C@@H](CNCc3ccsc3)CC2)n1` [compound 1304], the class under setting [3] is given as 3 (Class 3 The value of percent of control at 10^−7 M was more than 60% or the value of IC50 was more than 200 nM.).

As to `CN(C)c1ccnc(N[C@H]2CC[C@@H](NC(=O)NCc3ccccc3Cl)CC2)n1` [compound 2195], the class under setting [3] is reported as 3 (Class 3 The value of percent of control at 10^−7 M was more than 60% or the value of IC50 was more than 200 nM.).

Consider `COC(CN[C@H]1CC[C@@H](Nc2nccc(N(C)C)n2)CC1)c1ccccc1` (relative stereo) [compound 1516], for which the class under setting [1] is given as 3 (Class 3 The value of percent of control at 10^−7 M was more than 60% or the value of IC50 was more than 200 nM.).

For `CN(C)c1nc(N[C@H]2CC[C@@H](NC(=O)Nc3ccc(OC(F)(F)F)cc3)CC2)nc2c1CCCC2` [compound 1912], the class under setting [4] was 3 (Class 3 The value of percent of control at 10^−7 M was more than 60% or the value of IC50 was more than 200 nM.).

On to `Cc1cc(N(C)C)nc(N[C@H]2CC[C@@H](C(=O)N[C@H](C)c3ccc(F)cc3)CC2)n1` [compound 2804], for which, under setting [5], the class is on record as 2 (Class 2: The value of percent of control at 10^−7 M was from 40% to 60% or the value of IC′50 was from 50 nM to 200 nM.).

Consider `CN(C)c1cc(N[C@H]2CC[C@@H](CNC(=O)c3ccc(I)o3)CC2)nc2ccccc12` [compound 795, N-[(cis-4-{[4-(dimethylamino)quinolin-2-yl]amino}cyclohexyl)methyl]-5-iodo-2-furamide], for which the class under setting [3] was 3 (Class 3 The value of percent of control at 10^−7 M was more than 60% or the value of IC50 was more than 200 nM.).

Turning to `CN(C)c1nc(N[C@H]2CC[C@@H](NC(=O)Nc3ccc(OC(F)F)cc3)CC2)nc2c1CCCC2` [compound 1876], the class under setting [3] is given as 3 (Class 3 The value of percent of control at 10^−7 M was more than 60% or the value of IC50 was more than 200 nM.).

For the compound `CN(C)c1ccnc(N[C@H]2CC[C@@H](NC(=O)c3ccc(F)c(Cl)c3)CC2)n1` [compound 291, 3-chloro-N-(cis-4-{[4-(dimethylamino)pyrimidin-2-yl]amino}cyclohexyl)-4-fluorobenzamide], the class under setting [3] is on record as 1 (Class 1: The value of percent of control at 10^−7 M was less than 40% or the value of IC50 was less than 50 nM.).

As for `CN(C)c1nc(N[C@H]2CC[C@@H](CNC(=O)OCc3ccccc3Cl)CC2)nc2c1CCCC2` [compound 1616], under setting [1], the class is 3 (Class 3 The value of percent of control at 10^−7 M was more than 60% or the value of IC50 was more than 200 nM.).

With `CC(C)c1ccc(NC(=O)N[C@H]2CC[C@@H](Nc3nc4c(c(N(C)C)n3)CCCC4)CC2)cc1` [compound 1829], the class under setting [3] is on record as 3 (Class 3 The value of percent of control at 10^−7 M was more than 60% or the value of IC50 was more than 200 nM.).

Regarding `CCc1ccccc1NC(=O)NC[C@H]1CC[C@@H](Nc2nccc(N(C)C)n2)CC1` [compound 2423], under setting [2], the class was 3 (Class 3 The value of percent of control at 10^−7 M was more than 60% or the value of IC50 was more than 200 nM.).

`Cc1cc(Cl)ccc1NC(=S)N[C@H]1CC[C@@H](Nc2nc3c(c(N(C)C)n2)CCCC3)CC1` [compound 1766, N-(4-chloro-2-methylphenyl)-N′-(cis-4-{[4-(dimethylamino)-5,6,7,8-tetrahydroquinazolin-2-yl]amino}cyclohexyl)thiourea]: the class under setting [3] is on record as 1 (Class 1: The value of percent of control at 10^−7 M was less than 40% or the value of IC50 was less than 50 nM.).

Regarding `CC(C)[C@@H]1CC[C@@H](C)CC1OC(=O)N[C@H]1CC[C@@H](Nc2nccc(N(C)C)n2)CC1` (stereo partly drawn) [compound 1633], the class under setting [1] is listed as 3 (Class 3 The value of percent of control at 10^−7 M was more than 60% or the value of IC50 was more than 200 nM.).

For `CN(C)c1nc(N[C@H]2CC[C@@H](NC(=S)Nc3cc(Cl)ccc3Cl)CC2)nc2c1CCCC2` [compound 1936], the class under setting [4] is 3 (Class 3 The value of percent of control at 10^−7 M was more than 60% or the value of IC50 was more than 200 nM.).

For `CN(C)c1ccnc(N[C@H]2CC[C@@H](CNC(=O)c3cc(F)cc(F)c3)CC2)n1` [compound 379], under setting [3], the class is reported as 3 (Class 3 The value of percent of control at 10^−7 M was more than 60% or the value of IC50 was more than 200 nM.).

With `Cc1cc(N[C@H]2CC[C@@H](NC(=O)c3ccc(Br)o3)CC2)nc2ccccc12` [Example 2557, 5-bromo-N-{cis-4-[(4-methylquinolin-2-yl)amino]cyclohexyl}-2-furamide], the class amounted to 1.

On to `CN(C)c1ccnc(N[C@H]2CC[C@@H](NC(=O)c3cc4ccccc4s3)CC2)n1` [compound 312], for which the class under setting [3] is 3 (Class 3 The value of percent of control at 10^−7 M was more than 60% or the value of IC50 was more than 200 nM.).

On to `CN(C)c1cc(N[C@H]2CC[C@@H](NC(=O)Nc3ccccc3C(C)(C)C)CC2)nc2ccccc12` [compound 2114], for which the class under setting [3] is listed as 3 (Class 3 The value of percent of control at 10^−7 M was more than 60% or the value of IC50 was more than 200 nM.).

On to `Cc1cc(N(C)C)nc(N[C@H]2CC[C@@H](NC(=O)c3ccc(Cl)o3)CC2)n1` [compound 2980, 5-chloro-N-(cis-4-{[4-(dimethylamino)-6-methylpyrimidin-2-yl]amino}cyclohexyl)-2-furamide], for which, under setting [5], the class is given as 1 (Class 1: The value of percent of control at 10^−7 M was less than 40% or the value of IC50 was less than 50 nM.).

For `CN(C)c1ccnc(N[C@H]2CC[C@@H](NC(=O)c3ccccc3Oc3ccccc3)CC2)n1` [compound 893, N-(cis-4-{[4-(dimethylamino)pyrimidin-2-yl]amino}cyclohexyl)-2-phenoxybenzamide], under setting [3], the class was 2 (Class 2: The value of percent of control at 10^−7 M was from 40% to 60% or the value of IC′50 was from 50 nM to 200 nM.).

For the compound `CN(C)c1cc(N[C@H]2CC[C@@H](NC(=O)c3ccccc3-c3ccccc3)CC2)nc2ccccc12` [compound 755], under setting [3], the class is on record as 3 (Class 3 The value of percent of control at 10^−7 M was more than 60% or the value of IC50 was more than 200 nM.).

On to `CN(C)c1nc(N[C@H]2CC[C@@H](CNC(=O)c3cccc([N+](=O)[O-])c3)CC2)nc2c1CCCC2` [compound 606], for which, under setting [3], the class is 3 (Class 3 The value of percent of control at 10^−7 M was more than 60% or the value of IC50 was more than 200 nM.).

For the compound `CN(C)c1nc(N[C@H]2CC[C@@H](CNCc3c[nH]c4ccccc34)CC2)nc2c1CCCC2` [compound 1366], the class under setting [3] is 2 (Class 2: The value of percent of control at 10^−7 M was from 40% to 60% or the value of IC′50 was from 50 nM to 200 nM.).

As to `Cc1cc(N(C)C)nc(N[C@H]2CC[C@@H](NC(=O)c3cc(F)cc(F)c3)CC2)n1` [compound 2968, N-(cis-4-{[4-(dimethylamino)-6-methylpyrimidin-2-yl]amino}cyclohexyl)-3,5-difluorobenzamide], the class under setting [5] is 1 (Class 1: The value of percent of control at 10^−7 M was less than 40% or the value of IC50 was less than 50 nM.).

As to `COc1cc(COC(=O)NC[C@H]2CC[C@@H](Nc3nccc(N(C)C)n3)CC2)c([N+](=O)[O-])cc1OC` [compound 1641], the class under setting [1] is listed as 3 (Class 3 The value of percent of control at 10^−7 M was more than 60% or the value of IC50 was more than 200 nM.).
